One assay deals with BRM (Homo sapiens, UniProt P51531). The assay is described as follows: ATPase catalytic activity assay of BRM (ADP-Glo). To be noted: for IC50: read-out: BRM IC50 (μM)*. The format is biochemical. The method, boiled down:
(§1)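 In vitro biochemical ATPase assay; product ADP detected after removing leftover ATP and reconverting ADP to ATP for a luciferase signal.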
For orientation: In ADP-Glo the light output rises with the ADP produced.

A further assay addresses BRG-1 (Homo sapiens, UniProt P51532). Nature of the assay: ATPase catalytic activity assay of BRG-1 (ADP-Glo). To be noted: ATPase catalytic activity, ADP-Glo; for IC50: read-out: BRG1 IC50 (μM)*; for Emax: read-out: BRG1 Max % Inhibition. The format is biochemical. Summed up: as §1

By IC50 is commonly meant the concentration at which inhibition is half-maximal.

Chain of BRG-1 (P51532 whole entry): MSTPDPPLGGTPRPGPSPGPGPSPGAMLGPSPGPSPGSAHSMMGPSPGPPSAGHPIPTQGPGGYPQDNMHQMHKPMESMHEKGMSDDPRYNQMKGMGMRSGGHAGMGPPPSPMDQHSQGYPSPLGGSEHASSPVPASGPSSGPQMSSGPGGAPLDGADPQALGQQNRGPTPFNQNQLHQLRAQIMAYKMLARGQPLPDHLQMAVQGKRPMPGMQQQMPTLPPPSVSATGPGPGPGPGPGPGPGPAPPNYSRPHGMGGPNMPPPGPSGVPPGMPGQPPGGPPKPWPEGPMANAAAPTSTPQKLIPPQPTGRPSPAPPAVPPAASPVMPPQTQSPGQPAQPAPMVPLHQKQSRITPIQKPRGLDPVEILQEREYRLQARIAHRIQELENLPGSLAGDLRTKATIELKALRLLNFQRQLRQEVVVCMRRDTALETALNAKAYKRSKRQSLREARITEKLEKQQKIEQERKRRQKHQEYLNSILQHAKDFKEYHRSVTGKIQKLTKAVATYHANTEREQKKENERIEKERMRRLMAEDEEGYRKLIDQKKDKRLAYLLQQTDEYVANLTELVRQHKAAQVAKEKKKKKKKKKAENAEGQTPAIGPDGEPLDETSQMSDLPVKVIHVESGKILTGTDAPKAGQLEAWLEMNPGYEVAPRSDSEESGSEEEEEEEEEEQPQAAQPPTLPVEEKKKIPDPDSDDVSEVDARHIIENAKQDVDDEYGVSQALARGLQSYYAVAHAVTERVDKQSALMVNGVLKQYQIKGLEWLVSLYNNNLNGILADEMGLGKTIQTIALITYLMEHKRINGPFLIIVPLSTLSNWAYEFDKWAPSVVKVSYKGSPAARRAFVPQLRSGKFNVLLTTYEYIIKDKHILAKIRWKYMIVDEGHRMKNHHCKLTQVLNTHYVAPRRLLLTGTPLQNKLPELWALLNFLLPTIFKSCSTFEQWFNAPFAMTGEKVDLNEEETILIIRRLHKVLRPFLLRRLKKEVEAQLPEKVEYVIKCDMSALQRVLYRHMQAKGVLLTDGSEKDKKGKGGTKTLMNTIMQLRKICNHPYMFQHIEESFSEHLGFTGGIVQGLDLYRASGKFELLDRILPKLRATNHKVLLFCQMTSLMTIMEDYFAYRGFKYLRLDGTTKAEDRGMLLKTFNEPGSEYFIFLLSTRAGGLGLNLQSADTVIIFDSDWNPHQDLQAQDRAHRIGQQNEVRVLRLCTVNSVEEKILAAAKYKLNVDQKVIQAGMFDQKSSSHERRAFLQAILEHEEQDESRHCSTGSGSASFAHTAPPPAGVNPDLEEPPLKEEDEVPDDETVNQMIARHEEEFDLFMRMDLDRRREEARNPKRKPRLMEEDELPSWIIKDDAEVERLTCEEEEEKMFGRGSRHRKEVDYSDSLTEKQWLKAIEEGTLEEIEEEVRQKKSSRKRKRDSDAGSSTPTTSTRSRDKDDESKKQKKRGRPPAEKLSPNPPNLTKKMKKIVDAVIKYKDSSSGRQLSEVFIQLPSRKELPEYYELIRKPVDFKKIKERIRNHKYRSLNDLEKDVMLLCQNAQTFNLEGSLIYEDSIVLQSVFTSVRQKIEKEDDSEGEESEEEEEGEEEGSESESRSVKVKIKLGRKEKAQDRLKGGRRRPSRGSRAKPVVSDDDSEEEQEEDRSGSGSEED
Chain of BRM (P51531 whole entry): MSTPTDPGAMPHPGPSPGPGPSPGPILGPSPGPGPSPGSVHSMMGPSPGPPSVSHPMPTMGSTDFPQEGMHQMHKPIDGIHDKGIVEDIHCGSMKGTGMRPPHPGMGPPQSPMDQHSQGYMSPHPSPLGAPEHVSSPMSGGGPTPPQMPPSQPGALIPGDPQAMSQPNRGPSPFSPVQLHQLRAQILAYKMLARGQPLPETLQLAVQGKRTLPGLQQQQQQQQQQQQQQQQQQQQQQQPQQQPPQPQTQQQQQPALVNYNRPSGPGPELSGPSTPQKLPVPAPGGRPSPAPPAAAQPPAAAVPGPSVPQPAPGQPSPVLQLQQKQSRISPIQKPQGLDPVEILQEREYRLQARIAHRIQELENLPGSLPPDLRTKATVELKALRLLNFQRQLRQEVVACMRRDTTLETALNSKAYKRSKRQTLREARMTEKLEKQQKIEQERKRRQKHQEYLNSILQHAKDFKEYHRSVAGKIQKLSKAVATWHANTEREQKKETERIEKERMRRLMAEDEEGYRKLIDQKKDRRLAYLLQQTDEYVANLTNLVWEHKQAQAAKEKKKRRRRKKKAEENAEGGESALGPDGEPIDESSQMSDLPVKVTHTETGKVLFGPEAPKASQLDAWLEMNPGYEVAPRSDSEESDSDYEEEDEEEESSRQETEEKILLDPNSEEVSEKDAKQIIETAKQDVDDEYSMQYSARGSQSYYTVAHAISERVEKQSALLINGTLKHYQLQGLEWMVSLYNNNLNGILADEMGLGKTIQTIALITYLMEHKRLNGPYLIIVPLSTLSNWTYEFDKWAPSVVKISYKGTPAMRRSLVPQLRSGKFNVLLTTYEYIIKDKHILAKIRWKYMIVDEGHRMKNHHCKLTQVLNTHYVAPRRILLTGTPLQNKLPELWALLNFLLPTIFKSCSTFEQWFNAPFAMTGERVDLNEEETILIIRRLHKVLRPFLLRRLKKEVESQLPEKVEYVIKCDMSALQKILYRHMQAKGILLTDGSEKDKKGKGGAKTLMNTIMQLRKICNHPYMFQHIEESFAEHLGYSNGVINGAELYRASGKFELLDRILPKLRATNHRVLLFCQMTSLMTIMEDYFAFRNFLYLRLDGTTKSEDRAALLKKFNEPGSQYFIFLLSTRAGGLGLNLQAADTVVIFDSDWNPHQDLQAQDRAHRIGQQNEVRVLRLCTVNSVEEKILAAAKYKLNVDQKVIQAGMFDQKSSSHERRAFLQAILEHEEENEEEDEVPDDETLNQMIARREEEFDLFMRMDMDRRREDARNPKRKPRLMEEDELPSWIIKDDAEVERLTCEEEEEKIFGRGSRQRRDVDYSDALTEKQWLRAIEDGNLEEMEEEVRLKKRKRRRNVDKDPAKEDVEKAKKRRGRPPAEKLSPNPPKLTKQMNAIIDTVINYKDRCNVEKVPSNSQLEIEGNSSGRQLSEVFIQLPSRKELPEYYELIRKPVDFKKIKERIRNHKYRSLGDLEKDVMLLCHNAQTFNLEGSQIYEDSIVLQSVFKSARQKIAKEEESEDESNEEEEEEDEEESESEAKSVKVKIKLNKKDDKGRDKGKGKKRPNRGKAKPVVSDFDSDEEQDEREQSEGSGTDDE

Regarding `Cc1nccc(-c2cccc(-c3csc(NC(=O)CNC(=O)c4cccc(C(C)(C)CN)c4)n3)c2)n1` [Compound 95], at BRM, the “BRM Max % Inhibition” value was more than 95% and the IC50 is less than 0.1 µM. Moreover, on BRG-1, the IC50 lay within 0.1 to 1 µM and the Emax is more than 90%.
The like results for `CC1(C(N)=O)CCc2ccc(C(=O)NCC(=O)Nc3nc(-c4cccc(-c5ccncc5)c4)cs3)cc21` (centres unmarked) [Compound 96] were, in that order, more than 95%, 0.1 to 1 µM, 1 to 5 µM and more than 90%.
Turning to `Cc1cc(C(=O)NCC(=O)Nc2nc(-c3cccc(-c4ccncc4)c3)cs2)cc(C(C)(C)CN)c1C` [Compound 97], at BRM, the “BRM Max % Inhibition” value is reported as more than 90% and the IC50 was in the range of 0.1 to 1 µM. Also, at BRG-1, the IC50 was 1 to 5 µM and the Emax was more than 70%.
The like results for `Cc1cc(-c2cccc(-c3csc(NC(=O)CNC(=O)c4cccc(C(C)(C)CN)c4)n3)c2)ncn1` [Compound 98] were, in that order, more than 95%, 0.1 to 1 µM, 1 to 5 µM and more than 70%.
In the case of `C[C@@H]1CN(c2cccc(-c3csc(NC(=O)CNC(=O)c4cccc(C(C)(C)CN)c4)n3)c2)C[C@H](C)O1` [Compound 99], at BRM, the “BRM Max % Inhibition” value is on record as more than 95% and the 50% inhibitory concentration (IC50) is less than 0.1 µM. In addition, at BRG-1, the IC50 is 0.1 to 1 µM and the Emax was more than 90%.
Consider `Cc1nccc(-c2cccc(-c3csc(NC(=O)CNC(=O)c4cccc(C(C)(C)CN)c4)n3)c2)n1` [Compound 100], for which, on BRM, the “BRM Max % Inhibition” value was more than 95% and the 50% inhibitory concentration (IC50) is less than 0.1 µM. At BRG-1, the “BRG1 Max % Inhibition” value is on record as more than 95% and the IC50 was less than 0.1 µM.
Take `CC1(CN)CCc2ccc(C(=O)NCC(=O)Nc3nc(-c4cccc(-c5ccncc5)c4)cs3)cc21` (centres unmarked) [Compound 101]: on BRM, the “BRM Max % Inhibition” value is recorded as more than 90% and the IC50 was in the range of 0.1 to 1 µM. At BRG-1, the IC50 was in the range of 1 to 5 µM and the Emax is more than 70%.
Take `CC1(CO)CCc2ccc(C(=O)NCC(=O)Nc3nc(-c4cccc(-c5ccncc5)c4)cs3)cc21` (centres unmarked) [Compound 102]: on BRM, the “BRM Max % Inhibition” value is listed as more than 95% and the IC50 is less than 0.1 µM. Moreover, at BRG-1, the IC50 was in the range of 0.1 to 1 µM and the Emax was more than 80%.
Taken in the same sequence, the figures for `Cn1cc(-c2cccc(-c3csc(NC(=O)CNC(=O)c4cccc(C(C)(C)CO)c4)n3)c2)cn1` [Compound 104] were more than 90%, 0.1 to 1 µM, 1 to 5 µM and more than 70%.
The like results for `CC(C)(CO)c1cccc(C(=O)NCC(=O)Nc2nc(-c3cccc(C#N)c3)cs2)c1` [Compound 106] were, in that order, more than 80%, 1 to 5 µM, 1 to 5 µM and more than 30%.
The like results for `O=C(CNC(=O)c1ccc2c(c1)C1(CCNC1=O)CC2)Nc1nc(-c2cccc(-c3ccncc3)c2)cs1` (centres unmarked) [Compound 108] were, in that order, more than 95%, 0.1 to 1 µM, 1 to 5 µM and more than 80%.
As for `C[C@@H](N)C(C)(C)c1cccc(C(=O)NCC(=O)Nc2nc(-c3cccc(-c4ccncc4)c3)cs2)c1` [Compound 109], at BRM, the “BRM Max % Inhibition” value is more than 80% and the 50% inhibitory concentration (IC50) lay in the range of 1 to 5 µM. Besides, on BRG-1, the IC50 lay in the range of 1 to 5 µM and the Emax was more than 50%.
With `Cc1cc(-c2cccc(-c3csc(NC(=O)CNC(=O)c4ccc(C)c(S(=O)(=O)C(C)C)c4)n3)n2)ncn1` [Compound 110, 3-isopropylsulfonyl-4-methyl-N-[2-[[4-[6-(6-methylpyrimidin-4-yl)-2-pyridyl]thiazol-2-yl]amino]-2-oxo-ethyl]benzamide], on BRM, the “BRM Max % Inhibition” value is on record as more than 95% and the half-inhibitory concentration (IC50) was less than 0.1 µM. Further, on BRG-1, the half-inhibitory concentration (IC50) was in the range of 0.1 to 1 µM and the Emax is more than 80%.
Consider `CC(=O)NCc1cccc(-c2cccc(-c3csc(NC(=O)CNC(=O)c4cccc(S(=O)(=O)C(C)C)c4)n3)c2)c1` [Compound 111, N-(2-((4-(3′-(acetamidomethyl)-[1,1′-biphenyl]-3-yl)thiazol-2-yl)amino)-2-oxoethyl)-3-(isopropylsulfonyl) benzamide], for which, on BRM, the “BRM Max % Inhibition” value is on record as more than 90% and the IC50 was in the range of 0.1 to 1 µM. Also, at BRG-1, the IC50 was more than 5 µM and the Emax is more than 40%.
The like results for `CC(C(F)(F)F)S(=O)(=O)c1cccc(C(=O)NCC(=O)Nc2nc(-c3cccc(-c4ccncc4)c3)cs2)c1` (centres unmarked) [Compound 112] were, in that order, more than 80%, 0.1 to 1 µM, 0.1 to 1 µM and more than 50%.
For `CC(C(F)(F)F)S(=O)(=O)c1cccc(C(=O)NCC(=O)Nc2nc(-c3cccc(-c4ccncc4)c3)cs2)c1` (centres unmarked) [Compound 113, N-(2-oxo-2-((4-(3-(pyridin-4-yl)phenyl)thiazol-2-yl)amino)ethyl)-3-((1,1,1-trifluoropropan-2-yl)sulfonyl)benzamide], at BRM, the “BRM Max % Inhibition” value is given as more than 80% and the IC50 fell in the range of 0.1 to 1 µM. Further, on BRG-1, the “BRG1 Max % Inhibition” value was more than 50% and the IC50 lay within 0.1 to 1 µM.
`Cc1cc(-c2cccc(-c3csc(NC(=O)CNC(=O)c4cccc(S(=O)(=O)C(C)CN)c4)n3)c2)cc(C)n1` (centres unmarked) [Compound 114, 3-((1-aminopropan-2-yl)sulfonyl)-N-(2-((4-(3-(2,6-dimethylpyridin-4-yl)phenyl)thiazol-2-yl)amino)-2-oxoethyl)benzamide]: at BRM, the “BRM Max % Inhibition” value is given as more than 90% and the IC50 is less than 0.1 µM. Further, at BRG-1, the IC50 lay in the range of 0.1 to 1 µM and the Emax was more than 95%.
The like results for `C[C@@H](CO)S(=O)(=O)c1cccc(C(=O)NCC(=O)Nc2nc(-c3cccc(-c4ccncc4)c3)cs2)c1` [Compound 115, (S)-3-((1-hydroxypropan-2-yl)sulfonyl)-N-(2-oxo-2-((4-(3-(pyridin-4-yl)phenyl)thiazol-2-yl)amino)ethyl)benzamide] were, in that order, more than 95%, less than 0.1 µM, less than 0.1 µM and more than 95%.
`C[C@H](CO)S(=O)(=O)c1cccc(C(=O)NCC(=O)Nc2nc(-c3cccc(-c4ccncc4)c3)cs2)c1` [Compound 116, (R)-3-((1-hydroxypropan-2-yl)sulfonyl)-N-(2-oxo-2-((4-(3-(pyridin-4-yl)phenyl)thiazol-2-yl)amino)ethyl)benzamide]: on BRM, the “BRM Max % Inhibition” value is more than 80% and the IC50 lay within 0.1 to 1 µM. On BRG-1, the IC50 fell in the range of 1 to 5 µM and the Emax is more than 40%.
The like results for `Cc1cc(-c2cccc(-c3csc(NC(=O)CNC(=O)c4cccc(S(=O)(=O)C(C)C)c4)n3)n2)ncn1` [Compound 117, 3-isopropylsulfonyl-N-[2-[[4-[6-(6-methylpyrimidin-4-yl)-2-pyridyl]thiazol-2-yl]amino]-2-oxo-ethyl]benzamide] were, in that order, more than 95%, less than 0.1 µM, 0.1 to 1 µM and more than 80%.
The like results for `CC(C)S(=O)(=O)c1cccc(C(=O)NCC(=O)Nc2nc(-c3cccc(-c4cccc(C#N)n4)n3)cs2)c1` [Compound 118, N-[2-[[4-[6-(6-cyano-2-pyridyl)-2-pyridyl]thiazol-2-yl]amino]-2-oxo-ethyl]-3-isopropylsulfonyl-benzamide] were, in that order, more than 70%, 0.1 to 1 µM, more than 5 µM and less than 30%.
The like results for `COc1nccc(-c2cccc(-c3csc(NC(=O)CNC(=O)c4cccc(S(=O)(=O)C(C)C)c4)n3)n2)n1` [Compound 119, 3-isopropylsulfonyl-N-[2-[[4-[6-(2-methoxypyrimidin-4-yl)-2-pyridyl]thiazol-2-yl]amino]-2-oxo-ethyl]benzamide] were, in that order, more than 95%, less than 0.1 µM, 0.1 to 1 µM and more than 80%.
In the case of `Cc1nccc(-c2cccc(-c3csc(NC(=O)CNC(=O)c4cccc(S(=O)(=O)C(C)C)c4)n3)n2)n1` [Compound 121], on BRM, the “BRM Max % Inhibition” value is listed as more than 95% and the IC50 lay within 0.1 to 1 µM. Also, at BRG-1, the IC50 lay in the range of 1 to 5 µM and the Emax is more than 80%.
Taken in the same sequence, the figures for `COc1nc(C)cc(-c2cccc(-c3csc(NC(=O)CNC(=O)c4cccc(S(=O)(=O)C(C)C)c4)n3)c2)n1` [Compound 122, 3-isopropylsulfonyl-N-[2-[[4-[3-(2-methoxy-6-methyl-pyrimidin-4-yl)phenyl]thiazol-2-yl]amino]-2-oxoethyl]benzamide] were more than 95%, less than 0.1 µM, less than 0.1 µM and more than 95%.
Taken in the same sequence, the figures for `COc1cc(-c2cccc(-c3csc(NC(=O)CNC(=O)c4cccc(S(=O)(=O)C(C)C)c4)n3)c2)nc(C)n1` [Compound 123, 3-isopropylsulfonyl-N-[2-[[4-[3-(6-methoxy-2-methyl-pyrimidin-4-yl)phenyl]thiazol-2-yl]amino]-2-oxo-ethyl]benzamide] were more than 95%, less than 0.1 µM, 0.1 to 1 µM and more than 80%.
Taken in the same sequence, the figures for `CC(C)S(=O)(=O)c1cccc(C(=O)NCC(=O)Nc2nc(-c3cccc(-c4ccnc(CN)c4)c3)cs2)c1` [Compound 124, N-[2-[[4-[3-[2-(aminomethyl)-4-pyridyl]phenyl]thiazol-2-yl]amino]-2-oxo-ethyl]-3-isopropylsulfonyl-benzamide] were more than 90%, 0.1 to 1 µM, 1 to 5 µM and more than 70%.

(Values after US12685735B2 (Foghorn Therapeutics Inc., priority 2020, dated 2026).)
